From PubChem BioAssay (NCI)
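Grown in 96-well plates, cells were treated for 48 hours with each compound at five concentrations. Insufficient inhibition: endpoint recorded as highest concentration tested. GI50 = concentration required for 50% inhibition of growth. TGI is the concentration that stops growth completely.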

Key:
Test in all cases: NCI-60 cell line screen, 48 h
786-0 renal = test system: 786-0 renal
A498 renal = test system: A498 renal
A549 NSCLC = test system: A549 NSCLC
ACHN renal = test system: ACHN renal
BT-549 breast = test system: BT-549 breast
CAKI-1 renal = test system: CAKI-1 renal
CCRF-CEM leukemia = test system: CCRF-CEM leukemia
COLO 205 colon = test system: COLO 205 colon
DU-145 prostate = test system: DU-145 prostate
EKVX NSCLC = test system: EKVX NSCLC
HCC-2998 colon = test system: HCC-2998 colon
HCT-116 colon = test system: HCT-116 colon
HCT-15 colon = test system: HCT-15 colon
HL-60(TB) leukemia = test system: HL-60(TB) leukemia
HOP-62 NSCLC = test system: HOP-62 NSCLC
HOP-92 NSCLC = test system: HOP-92 NSCLC
HS 578T breast = test system: HS 578T breast
HT29 colon = test system: HT29 colon
IGROV1 ovarian = test system: IGROV1 ovarian
K-562 leukemia = test system: K-562 leukemia
KM12 colon = test system: KM12 colon
LOX IMVI melanoma = test system: LOX IMVI melanoma
M14 melanoma = test system: M14 melanoma
MALME-3M melanoma = test system: MALME-3M melanoma
MCF7 breast = test system: MCF7 breast
MDA-MB-231 breast = test system: MDA-MB-231 breast
MDA-MB-435 = test system: MDA-MB-435
MOLT-4 leukemia = test system: MOLT-4 leukemia
NCI-H226 lung = test system: NCI-H226 lung
NCI-H23 lung = test system: NCI-H23 lung
NCI-H460 lung = test system: NCI-H460 lung
NCI-H522 lung = test system: NCI-H522 lung
NCI/ADR-RES ovarian = test system: NCI/ADR-RES ovarian
OVCAR-3 ovarian = test system: OVCAR-3 ovarian
OVCAR-4 ovarian = test system: OVCAR-4 ovarian
OVCAR-5 ovarian = test system: OVCAR-5 ovarian
OVCAR-8 ovarian = test system: OVCAR-8 ovarian
PC-3 prostate = test system: PC-3 prostate
RPMI-8226 leukemia = test system: RPMI-8226 leukemia
RXF 393 renal = test system: RXF 393 renal
SF-268 CNS = test system: SF-268 CNS
SF-295 CNS = test system: SF-295 CNS
SF-539 CNS = test system: SF-539 CNS
SK-MEL-2 melanoma = test system: SK-MEL-2 melanoma
SK-MEL-28 melanoma = test system: SK-MEL-28 melanoma
SK-MEL-5 melanoma = test system: SK-MEL-5 melanoma
SK-OV-3 ovarian = test system: SK-OV-3 ovarian
SN12C renal = test system: SN12C renal
SNB-19 CNS = test system: SNB-19 CNS
SNB-75 CNS = test system: SNB-75 CNS
SR leukemia = test system: SR leukemia
SW-620 colon = test system: SW-620 colon
T-47D breast = test system: T-47D breast
TK-10 renal = test system: TK-10 renal
U251 CNS = test system: U251 CNS
UACC-257 melanoma = test system: UACC-257 melanoma
UACC-62 melanoma = test system: UACC-62 melanoma
UO-31 renal = test system: UO-31 renal

Work on `Cc1cc(C(NC(=O)CCCCCNc2cccc3c2C(=O)N(C2CCC(=O)NC2=O)C3=O)c2cccnc2)c(O)c2ncccc12` (stereo not drawn) yielded a GI50 (786-0 renal) of 164 nM, a TGI (786-0 renal) of 14700 nM and a GI50 (A498 renal) of 202 nM. For the same compound, the TGI (A498 renal) was 6520 nM, the GI50 (A549 NSCLC) was 734 nM and the TGI (A549 NSCLC) was 28000 nM. It also gave a GI50 (ACHN renal) of 3580 nM, a TGI (ACHN renal) greater than 59500 nM and a GI50 (BT-549 breast) of less than 12.8 nM. The TGI (BT-549 breast) was 39.2 nM, the GI50 (CAKI-1 renal) was 471 nM and the TGI (CAKI-1 renal) was 16700 nM. The GI50 (CCRF-CEM leukemia) was less than 10 nM, the TGI (CCRF-CEM leukemia) was greater than 100000 nM and the GI50 (COLO 205 colon) was 28.8 nM. For the same compound, the TGI (COLO 205 colon) was 1670 nM, the GI50 (DU-145 prostate) was 1920 nM and the TGI (DU-145 prostate) was greater than 100000 nM. For the same compound, the GI50 (EKVX NSCLC) was 809 nM, the TGI (EKVX NSCLC) was greater than 22500 nM and the GI50 (HCC-2998 colon) was 26.4 nM. For the same compound, the TGI (HCC-2998 colon) was 2450 nM, the GI50 (HCT-116 colon) was 1520 nM and the TGI (HCT-116 colon) was greater than 100000 nM. It also gave a GI50 (HCT-15 colon) of 228 nM, a TGI (HCT-15 colon) greater than 100000 nM and a GI50 (HL-60(TB) leukemia) of less than 13.4 nM. It also gave a TGI (HL-60(TB) leukemia) of 35.5 nM, a GI50 (HOP-62 NSCLC) of 21.4 nM and a TGI (HOP-62 NSCLC) of 685 nM. For the same compound, the GI50 (HOP-92 NSCLC) was less than 12.1 nM, the TGI (HOP-92 NSCLC) was 304 nM and the GI50 (HS 578T breast) was 18.4 nM. It also gave a TGI (HS 578T breast) of 7090 nM, a GI50 (HT29 colon) of 446 nM and a TGI (HT29 colon) greater than 100000 nM. The GI50 (IGROV1 ovarian) was 27.2 nM, the TGI (IGROV1 ovarian) was 3800 nM and the GI50 (K-562 leukemia) was 1210 nM. For the same compound, the TGI (K-562 leukemia) was greater than 100000 nM, the GI50 (KM12 colon) was 199 nM and the TGI (KM12 colon) was 21300 nM. It also gave a GI50 (LOX IMVI melanoma) of 856 nM, a TGI (LOX IMVI melanoma) of 12400 nM and a GI50 (M14 melanoma) of 100 nM. The TGI (M14 melanoma) was 4990 nM, the GI50 (MALME-3M melanoma) was less than 10 nM and the TGI (MALME-3M melanoma) was 22.4 nM. It also gave a GI50 (MCF7 breast) of 62.5 nM, a TGI (MCF7 breast) of 14000 nM and a GI50 (MDA-MB-231 breast) of 13.6 nM. The TGI (MDA-MB-231 breast) was 193 nM, the GI50 (MDA-MB-435) was 2350 nM and the TGI (MDA-MB-435) was greater than 100000 nM. For the same compound, the GI50 (MOLT-4 leukemia) was less than 10 nM, the TGI (MOLT-4 leukemia) was 156 nM and the GI50 (NCI-H226 lung) was 32.4 nM. The TGI (NCI-H226 lung) was 961 nM, the GI50 (NCI-H23 lung) was 1800 nM and the TGI (NCI-H23 lung) was 43800 nM. For the same compound, the GI50 (NCI-H460 lung) was 1510 nM, the TGI (NCI-H460 lung) was 28100 nM and the GI50 (NCI-H522 lung) was 639 nM. For the same compound, the GI50 (NCI/ADR-RES ovarian) was 13400 nM, the TGI (NCI/ADR-RES ovarian) was greater than 100000 nM and the GI50 (OVCAR-3 ovarian) was 252 nM. The TGI (OVCAR-3 ovarian) was 15600 nM, the GI50 (OVCAR-4 ovarian) was 22.1 nM and the TGI (OVCAR-4 ovarian) was 325 nM. For the same compound, the GI50 (OVCAR-5 ovarian) was 637 nM, the TGI (OVCAR-5 ovarian) was greater than 100000 nM and the GI50 (OVCAR-8 ovarian) was less than 16.3 nM. For the same compound, the TGI (OVCAR-8 ovarian) was 8330 nM, the GI50 (PC-3 prostate) was 20.7 nM and the GI50 (RPMI-8226 leukemia) was 1350 nM. It also gave a TGI (RPMI-8226 leukemia) greater than 100000 nM, a GI50 (RXF 393 renal) of 221 nM and a TGI (RXF 393 renal) of 2280 nM. The GI50 (SF-268 CNS) was 112 nM, the TGI (SF-268 CNS) was 18800 nM and the GI50 (SF-295 CNS) was 291 nM. It also gave a TGI (SF-295 CNS) of 8140 nM, a GI50 (SF-539 CNS) of 933 nM and a TGI (SF-539 CNS) of 8950 nM. It also gave a GI50 (SK-MEL-2 melanoma) of 485 nM, a TGI (SK-MEL-2 melanoma) of 11400 nM and a GI50 (SK-MEL-28 melanoma) of 904 nM. For the same compound, the TGI (SK-MEL-28 melanoma) was greater than 74900 nM, the GI50 (SK-MEL-5 melanoma) was 52.5 nM and the TGI (SK-MEL-5 melanoma) was 999 nM. It also gave a GI50 (SK-OV-3 ovarian) of 222 nM, a TGI (SK-OV-3 ovarian) of 3920 nM and a GI50 (SN12C renal) of 50.1 nM. It also gave a GI50 (SNB-19 CNS) of 273 nM, a TGI (SNB-19 CNS) greater than 100000 nM and a GI50 (SNB-75 CNS) of 20.8 nM. It also gave a TGI (SNB-75 CNS) of 5320 nM, a GI50 (SR leukemia) of 433 nM and a TGI (SR leukemia) greater than 54200 nM. The GI50 (SW-620 colon) was 21 nM, the TGI (SW-620 colon) was greater than 100000 nM and the GI50 (T-47D breast) was 10.3 nM. For the same compound, the TGI (T-47D breast) was 5120 nM, the GI50 (TK-10 renal) was 413 nM and the TGI (TK-10 renal) was greater than 100000 nM. For the same compound, the GI50 (U251 CNS) was 641 nM, the TGI (U251 CNS) was greater than 100000 nM and the GI50 (UACC-257 melanoma) was 2090 nM. It also gave a TGI (UACC-257 melanoma) greater than 27600 nM, a GI50 (UACC-62 melanoma) of 1810 nM and a TGI (UACC-62 melanoma) of 6350 nM. For the same compound, the GI50 (UO-31 renal) was 362 nM and the TGI (UO-31 renal) was 34400 nM.
